Drawing on US11472803B2, “7-substituted 1-aryl-naphthyridine-3-carboxylic acid amides and use thereof” (Bayer Aktiengesellschaft, priority 2016, dated 2022), this text covers EC50 and Emax for six compounds.

For orientation: EC50 means the concentration needed to bring the measured effect to its halfway point. A low value points to greater potency. For orientation: Emax means the size of the effect at its maximum, as opposed to the concentration needed.

The experiment deals with T1, human M2 receptor (Homo sapiens, UniProt P08172).
T1 construct: expressed in transfected cells; host or cells: CHO-DUKX (CHO-DUKX-M2-GIRK)
T1 sequence (P08172 1-466): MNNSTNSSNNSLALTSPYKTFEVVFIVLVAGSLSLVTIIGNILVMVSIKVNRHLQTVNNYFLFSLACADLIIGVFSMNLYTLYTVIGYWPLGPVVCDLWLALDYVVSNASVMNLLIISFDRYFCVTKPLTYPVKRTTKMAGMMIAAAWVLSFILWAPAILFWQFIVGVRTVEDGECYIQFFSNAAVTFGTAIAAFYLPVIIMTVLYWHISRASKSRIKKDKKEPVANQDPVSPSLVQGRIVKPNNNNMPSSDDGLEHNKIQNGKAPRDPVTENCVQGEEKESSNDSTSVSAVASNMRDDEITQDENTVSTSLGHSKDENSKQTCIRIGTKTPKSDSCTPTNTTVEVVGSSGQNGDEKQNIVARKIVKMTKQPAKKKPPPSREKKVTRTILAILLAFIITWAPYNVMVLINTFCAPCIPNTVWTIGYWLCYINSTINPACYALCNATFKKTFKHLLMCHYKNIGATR
The experiment is described as follows: Functional M2-GIRK1/4 activation test: allosteric potency (EC50) and efficiency at EC20 acetylcholine. In kind it is cell-based. The settings on record: CHO-DUKX-M2-GIRK cells; for EC50: voltage-sensitive dye, acetylcholine at EC20, in some cases mean of two or more determinations; for Emax: boosting of the acetylcholine effect at EC20 acetylcholine concentration. The method in brief: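 Positive allosteric modulation measured as boosting of an EC20 acetylcholine response: hyperpolarization via GIRK1/4 in CHO-DUKX-M2-GIRK cells, monitored by membrane-potential dye fluorescence over 60 s after agonist, compound preadded. Hill-function fit gives EC50 and efficiency.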

In turn, `CC(NC(=O)c1cn(-c2c(F)cc(F)cc2F)c2nc(N3CCC(O)C(O)C3)c(F)cc2c1=O)C(F)(F)C(F)(F)F` (stereo not drawn) [Example 181, 7-(3,4-Dihydroxypiperidin-1-yl)-6-fluoro-4-oxo-N-(3,3,4,4,4-pentafluorobutan-2-yl)-1-(2,4,6-trifluorophenyl)-1,4-dihydro-1,8-naphthyridine-3-carboxamide] returned an EC50 of 13 nM and an Emax of 83%.
On the same counts, the results for `CC(C)C(NC(=O)c1cn(-c2c(F)cc(F)cc2F)c2nc(N3CC[C@H](O)C3)c(F)cc2c1=O)C(C)C` [Example 122, N-(2,4-Dimethylpentan-3-yl)-6-fluoro-7-[(3S)-3-hydroxypyrrolidin-1-yl]-4-oxo-1-(2,4,6-tri-fluorophenyl)-1,4-dihydro-1,8-naphthyridine-3-carboxamide] are 3.55 nM and 100%.
Compound `CC(C)(NC(=O)c1cn(-c2c(F)cc(F)cc2F)c2nc(N3CCOCC3)c(F)cc2c1=O)C(F)F` [Example 150, N-(1,1-Difluoro-2-methylpropan-2-yl)-6-fluoro-7-(morpholin-4-yl)-4-oxo-1-(2,4,6-trifluoro-phenyl)-1,4-dihydro-1,8-naphthyridine-3-carboxamide] gave an EC50 of 24 nM and an Emax of 93%.
For `CC(NC(=O)c1cn(-c2c(F)cc(F)cc2F)c2nc(N3CCCC(O)(CO)C3)c(F)cc2c1=O)C(F)(F)C(F)(F)F` (stereo not drawn) [Example 192, 6-Fluoro-7-[3-hydroxy-3-(hydroxymethyl)piperidin-1-yl]-4-oxo-N-[3,3,4,4,4-pentafluorobutan-2-yl]-1-(2,4,6-trifluorophenyl)-1,4-dihydro-1,8-naphthyridine-3-carboxamide] the same measures were 128 nM and 100%.
For `CC(C)C(NC(=O)c1cn(-c2c(F)cc(F)cc2F)c2nc(N3C[C@@H](O)[C@@H](O)C3)c(F)cc2c1=O)C(F)(F)F` (mixture of isomers) [Example 123, 7-[(3R,4S)-3,4-Dihydroxypyrrolidin-1-yl]-6-fluoro-4-oxo-N-[1,1,1-trifluoro-3-methylbutan-2-yl]-1-(2,4,6-trifluorophenyl)-1,4-dihydro-1,8-naphthyridine-3-carboxamide] the same measures were 3.1 nM and 100%.
The compound `CC(C)C(NC(=O)c1cn(-c2c(F)cc(F)cc2F)c2nc(N3C[C@@H](O)[C@@H](O)C3)c(F)cc2c1=O)C(F)(F)F` (single isomer, unassigned) [Example 137] came in with an EC50 of 3.3 nM and an Emax of 91%.
